Experimental data: ChEMBL document CHEMBL5532636 (Eur J Med Chem, 2023)

How the values were obtained:
SARS-CoV-2 [1] = assay: (§1) Antiviral activity against SARS-CoV-2 infected in human Calu-3 cells assessed as reduction in progeny virus yeild preincubated with cell culture for 1 hr and further infected with virus for 1 hr followed by replacement of medium containing compound measured after 2 days by qRT-PCR analysis; assay type: functional, organism-based; settings: Severe acute respiratory syndrome coronavirus 2, Calu-3
SARS-CoV-2 [2] = assay: as §1, with “African green monkey Vero” for “human Calu-3”; assay type: functional, organism-based; settings: Severe acute respiratory syndrome coronavirus 2, Vero

SMILES	EC50 (SARS-CoV-2 [1])	EC50 (SARS-CoV-2 [2])
O=c1cc(-c2ccccc2)oc2cc(O)c(O)c(O)c12 [BAICALEIN]	1.2 µM	–
O=C(O)[C@H]1O[C@@H](Oc2cc3oc(-c4ccccc4)cc(=O)c3c(O)c2O)[C@H](O)[C@@H](O)[C@@H]1O [BAICALIN]	–	9 µM
